{"source": "patent US10206937B2", "about": "“Boronic acid derivatives and therapeutic uses thereof” (Qpex Biopharma, Inc., priority 2014, dated 2019)", "system": "strains of Enterobacteriaceae producing various carbapenemases (class A, D and B; 169 strains)", "test": "Meropenem or tebipenem potentiation by Compounds 97 or 62 (MIC)", "assay_type": "cell-based", "description": "The largest panel of clinical isolates expressing class A, D and B carbapenemases alone or in combination with other beta-lactamases (169 strains) was used to evaluate carbapenem potentiation activity of Compounds 97 and 62. MIC for meropenem and tebipenem of these strains were determined either alone or in the presence of Compounds 97 or 62, respectively, at a fixed concentration of 8 μg/ml in the growth media.", "data": [{"smiles": "C[C@@H](O)[C@H]1C(=O)N2C(C(=O)O)=C(S[C@@H]3CN[C@H](C(=O)N(C)C)C3)[C@H](C)[C@H]12", "note": "[M]", "values": [{"measurement": "Meropenem MIC alone (M)", "setting": "KP1182 Klebsiella pneumoniae SHV-OSBL(2b), NDM-1, OXA-232(c)", "result": "Z (MIC of greater than 10 μg/mL)"}, {"measurement": "Meropenem MIC alone (M)", "setting": "KP1183 Klebsiella pneumoniae SHV-OSBL(2b), TEM-OSBL(2b), CTX-M-15, NDM-1", "result": "Z (MIC of greater than 10 μg/mL)"}, {"measurement": "Meropenem MIC alone (M)", "setting": "KP1184 Klebsiella pneumoniae SHV-OSBL(2b), IMP-1", "result": "Y (MIC of 1 μg/mL to 10 μg/mL)"}, {"measurement": "Meropenem MIC alone (M)", "setting": "KP1185 Klebsiella pneumoniae SHV-OSBL(2b), TEM-OSBL(2b), IMP-4", "result": "Z (MIC of greater than 10 μg/mL)"}, {"measurement": "Meropenem MIC alone (M)", "setting": "KP1186 Klebsiella pneumoniae CTX-M-15, NDM-1", "result": "Z (MIC of greater than 10 μg/mL)"}, {"measurement": "Meropenem MIC alone (M)", "setting": "KP1187 Klebsiella pneumoniae SHV-55(2be), TEM-OSBL(2b), CTX-M-15, NDM-1", "result": "Z (MIC of greater than 10 μg/mL)"}, {"measurement": "Meropenem MIC alone (M)", "setting": "KP1188 Klebsiella pneumoniae SHV-OSBL(2b), CTX-M-15, NDM-1", "result": "Y (MIC of 1 μg/mL to 10 μg/mL)"}, {"measurement": "Meropenem MIC alone (M)", "setting": "KP1189 Klebsiella pneumoniae TEM-OSBL(2b), CTX-M-15, CTX-M-27, NDM-1", "result": "Z (MIC of greater than 10 μg/mL)"}, {"measurement": "Meropenem MIC alone (M)", "setting": "KP1190 Klebsiella pneumoniae KPC-4 VIM-4 TEM SHV", "result": "Z (MIC of greater than 10 μg/mL)"}, {"measurement": "Meropenem MIC alone (M)", "setting": "KP1191 Klebsiella pneumoniae KPC-2", "result": "Z (MIC of greater than 10 μg/mL)"}, {"measurement": "Meropenem MIC alone (M)", "setting": "KP1192 Klebsiella pneumoniae KPC-2 TEM SHV", "result": "Z (MIC of greater than 10 μg/mL)"}, {"measurement": "Meropenem MIC alone (M)", "setting": "KP1193 Klebsiella pneumoniae KPC-3 TEM SHV", "result": "Z (MIC of greater than 10 μg/mL)"}, {"measurement": "Meropenem MIC alone (M)", "setting": "KP1194 Klebsiella pneumoniae KPC TEM SHV", "result": "Z (MIC of greater than 10 μg/mL)"}, {"measurement": "Meropenem MIC alone (M)", "setting": "KP1195 Klebsiella pneumoniae KPC TEM CTX-M-15", "result": "Z (MIC of greater than 10 μg/mL)"}, {"measurement": "Meropenem MIC alone (M)", "setting": "KP1196 Klebsiella pneumoniae KPC TEM SHV CTX-M-15 CMY", "result": "Z (MIC of greater than 10 μg/mL)"}, {"measurement": "Meropenem MIC alone (M)", "setting": "KP1197 Klebsiella pneumoniae KPC-3, VIM-1 TEM SHV", "result": "Z (MIC of greater than 10 μg/mL)"}, {"measurement": "Meropenem MIC alone (M)", "setting": "KP1198 Klebsiella pneumoniae KPC-3, VIM-1 TEM SHV", "result": "Z (MIC of greater than 10 μg/mL)"}, {"measurement": "Meropenem MIC alone (M)", "setting": "KP1199 Klebsiella pneumoniae KPC-3 TEM SHV", "result": "Z (MIC of greater than 10 μg/mL)"}, {"measurement": "Meropenem MIC alone (M)", "setting": "KP1200 Klebsiella pneumoniae KPC-3 TEM SHV", "result": "Z (MIC of greater than 10 μg/mL)"}, {"measurement": "Meropenem MIC alone (M)", "setting": "KP1210 Klebsiella pneumoniae KPC SHV TEM", "result": "Z (MIC of greater than 10 μg/mL)"}, {"measurement": "Meropenem MIC alone (M)", "setting": "KP1211 Klebsiella pneumoniae KPC SHV TEM CTX-M-15", "result": "Z (MIC of greater than 10 μg/mL)"}, {"measurement": "Meropenem MIC alone (M)", "setting": "KP1212 Klebsiella pneumoniae KPC SHV TEM CTX-M-15", "result": "Z (MIC of greater than 10 μg/mL)"}, {"measurement": "Meropenem MIC alone (M)", "setting": "KP1213 Klebsiella pneumoniae KPC SHV TEM CTX-M-15", "result": "Z (MIC of greater than 10 μg/mL)"}, {"measurement": "Meropenem MIC alone (M)", "setting": "KP1214 Klebsiella pneumoniae KPC SHV TEM + 1.9 kb", "result": "Z (MIC of greater than 10 μg/mL)"}, {"measurement": "Meropenem MIC alone (M)", "setting": "KP1215 Klebsiella pneumoniae KPC SHV", "result": "Z (MIC of greater than 10 μg/mL)"}, {"measurement": "Meropenem MIC alone (M)", "setting": "KP1216 Klebsiella pneumoniae KPC SHV TEM + 1.9 kb", "result": "Z (MIC of greater than 10 μg/mL)"}, {"measurement": "Meropenem MIC alone (M)", "setting": "KP1217 Klebsiella pneumoniae KPC SHV TEM + 1.9 kb", "result": "Z (MIC of greater than 10 μg/mL)"}, {"measurement": "Meropenem MIC alone (M)", "setting": "KP1218 Klebsiella pneumoniae KPC SHV TEM + 1.9 kb", "result": "Z (MIC of greater than 10 μg/mL)"}, {"measurement": "Meropenem MIC alone (M)", "setting": "KP1219 Klebsiella pneumoniae KPC SHV TEM + 1.9 kb", "result": "Z (MIC of greater than 10 μg/mL)"}, {"measurement": "Meropenem MIC alone (M)", "setting": "KP1220 Klebsiella pneumoniae KPC SHV TEM + 1.9 kb", "result": "Z (MIC of greater than 10 μg/mL)"}, {"measurement": "Meropenem MIC alone (M)", "setting": "KP1221 Klebsiella pneumoniae KPC SHV TEM + 1.9 kb", "result": "Z (MIC of greater than 10 μg/mL)"}, {"measurement": "Meropenem MIC alone (M)", "setting": "KP1222 Klebsiella pneumoniae KPC SHV TEM IMP", "result": "Z (MIC of greater than 10 μg/mL)"}, {"measurement": "Meropenem MIC alone (M)", "setting": "KP1223 Klebsiella pneumoniae KPC SHV TEM", "result": "Z (MIC of greater than 10 μg/mL)"}, {"measurement": "Meropenem MIC alone (M)", "setting": "KP1224 Klebsiella pneumoniae KPC SHV TEM", "result": "Z (MIC of greater than 10 μg/mL)"}, {"measurement": "Meropenem MIC alone (M)", "setting": "KP1225 Klebsiella pneumoniae KPC SHV TEM + 1.9 kb CMY", "result": "Z (MIC of greater than 10 μg/mL)"}, {"measurement": "Meropenem MIC alone (M)", "setting": "KP1226 Klebsiella pneumoniae KPC SHV TEM + 1.9 kb", "result": "Z (MIC of greater than 10 μg/mL)"}, {"measurement": "Meropenem MIC alone (M)", "setting": "KP1227 Klebsiella pneumoniae KPC SHV TEM CTX-M-15", "result": "Z (MIC of greater than 10 μg/mL)"}, {"measurement": "Meropenem MIC alone (M)", "setting": "KP1228 Klebsiella pneumoniae OXA-48 TEM SHV CTX-M-15", "result": "Y (MIC of 1 μg/mL to 10 μg/mL)"}, {"measurement": "Meropenem MIC alone (M)", "setting": "KP1229 Klebsiella pneumoniae OXA-48 TEM SHV CTX-M-15", "result": "Z (MIC of greater than 10 μg/mL)"}, {"measurement": "Meropenem MIC alone (M)", "setting": "KP1230 Klebsiella pneumoniae OXA-48 TEM SHV CTX-M-15", "result": "Y (MIC of 1 μg/mL to 10 μg/mL)"}, {"measurement": "Meropenem MIC alone (M)", "setting": "KP1231 Klebsiella pneumoniae OXA-48 TEM SHV CTX-M-15", "result": "Y (MIC of 1 μg/mL to 10 μg/mL)"}, {"measurement": "Meropenem MIC alone (M)", "setting": "KP1232 Klebsiella pneumoniae OXA-48 TEM SHV CTX-M-15", "result": "Z (MIC of greater than 10 μg/mL)"}, {"measurement": "Meropenem MIC alone (M)", "setting": "KP1234 Klebsiella pneumoniae OXA-48 TEM SHV CTX-M-15", "result": "Z (MIC of greater than 10 μg/mL)"}, {"measurement": "Meropenem MIC alone (M)", "setting": "KP1236 Klebsiella pneumoniae OXA-48 TEM SHV CTX-M-15", "result": "Z (MIC of greater than 10 μg/mL)"}, {"measurement": "Meropenem MIC alone (M)", "setting": "PM1024 Proteus mirabilis TEM-1(2b), CMY-16, VIM-1", "result": "Z (MIC of greater than 10 μg/mL)"}, {"measurement": "Meropenem MIC alone (M)", "setting": "PM1025 Proteus mirabilis SHV-5(2be), TEM-OSBL(2b), VEB-2, VIM-1", "result": "Y (MIC of 1 μg/mL to 10 μg/mL)"}, {"measurement": "Meropenem MIC alone (M)", "setting": "PM1026 Proteus mirabilis DHA-1, IMP-26", "result": "Z (MIC of greater than 10 μg/mL)"}, {"measurement": "Meropenem MIC alone (M)", "setting": "PM1027 Proteus mirabilis VIM-5", "result": "Z (MIC of greater than 10 μg/mL)"}, {"measurement": "Meropenem MIC alone (M)", "setting": "SM1023 Serratia marcescens VIM-4", "result": "Z (MIC of greater than 10 μg/mL)"}, {"measurement": "Meropenem MIC alone (M)", "setting": "SM1024 Serratia marcescens TEM-1(2b), IMP-47", "result": "Y (MIC of 1 μg/mL to 10 μg/mL)"}]}]}
